Values belong to the molecule of their own block, whether it stands above or below them.
Columns and labels:
[1] = molecular target: T1, S-methyl-5'-thioadenosine phosphorylase (Homo sapiens) (UniProt Q13126); assay: Kcat against human methylthioadenosine phosphorylase expressed in Escherichia coli BL21 DE3 cells
T1 sequence (whole entry): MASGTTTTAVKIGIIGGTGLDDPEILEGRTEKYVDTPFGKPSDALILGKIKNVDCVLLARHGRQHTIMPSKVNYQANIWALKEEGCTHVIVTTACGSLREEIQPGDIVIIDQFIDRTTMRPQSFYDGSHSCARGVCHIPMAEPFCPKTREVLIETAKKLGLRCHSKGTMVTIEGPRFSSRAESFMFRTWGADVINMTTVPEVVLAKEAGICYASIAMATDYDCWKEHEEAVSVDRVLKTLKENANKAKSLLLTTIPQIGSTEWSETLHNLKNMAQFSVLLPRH

[2] = molecular target: T1, S-methyl-5'-thioadenosine phosphorylase (Homo sapiens); assay: Ratio of Kcat to Km against human Methylthioadenosine phosphorylase
[3] = substrate: Nc1ncnc2c1ncn2[C@@H]1O[C@H](CSC2CCCCC2)[C@@H](O)[C@H]1O; assay: (§1) Km against human methylthioadenosine phosphorylase expressed in Escherichia coli BL21 DE3 cells
[4] = substrate: Nc1ncnc2c1ncn2[C@@H]1O[C@H](CSc2ncc[nH]2)[C@@H](O)[C@H]1O; assay: as §1
[5] = substrate: Nc1ncnc2c1ncn2[C@@H]1O[C@H](CSc2ccccc2)[C@@H](O)[C@H]1O; assay: as §1
[6] = substrate: Nc1ncnc2c1ncn2[C@@H]1O[C@H](COc2ccccc2)[C@@H](O)[C@H]1O; assay: as §1
[7] = substrate: CSC[C@H]1O[C@@H](n2cnc3c(N)ncnc32)[C@H](N)[C@@H]1O; assay: as §1
[8] = substrate: Nc1ncnc2c1ncn2[C@@H]1O[C@H](CSc2ccncc2)[C@@H](O)[C@H]1O; assay: as §1
[9] = substrate: CC(C)CCSC[C@H]1O[C@@H](n2cnc3c(N)ncnc32)[C@H](O)[C@@H]1O; assay: as §1
[10] = substrate: Nc1ncnc2c1ncn2[C@@H]1O[C@H](CCc2ccccc2)[C@@H](O)[C@H]1O; assay: as §1
[11] = substrate: CC(C)CSC[C@H]1O[C@@H](n2cnc3c(N)ncnc32)[C@H](O)[C@@H]1O; assay: as §1
[12] = substrate: Cc1cccc(SC[C@H]2O[C@@H](n3cnc4c(N)ncnc43)[C@H](O)[C@@H]2O)c1; assay: as §1
[13] = substrate: Nc1ncnc2c1ncn2[C@@H]1O[C@H](CSCc2ccccc2)[C@@H](O)[C@H]1O; assay: as §1
[14] = substrate: Nc1ncnc2c1ncn2[C@@H]1O[C@H](CSCCO)[C@@H](O)[C@H]1O; assay: as §1
[15] = substrate: COc1ccc(SC[C@H]2O[C@@H](n3cnc4c(N)ncnc43)[C@H](O)[C@@H]2O)cc1; assay: as §1
[16] = substrate: CCCCSC[C@H]1O[C@@H](n2cnc3c(N)ncnc32)[C@H](O)[C@@H]1O; assay: as §1
[17] = substrate: Nc1ncnc2c1ncn2[C@@H]1O[C@H](CSc2ccc3ccccc3n2)[C@@H](O)[C@H]1O; assay: as §1
[18] = substrate: C[C@H]1O[C@@H](n2cnc3c(N)ncnc32)[C@H](O)[C@@H]1O; assay: as §1
[19] = substrate: Nc1ncnc2c1ncn2[C@@H]1O[C@H](CSCCc2ccccn2)[C@@H](O)[C@H]1O; assay: as §1
[20] = substrate: Cc1ccccc1SC[C@H]1O[C@@H](n2cnc3c(N)ncnc32)[C@H](O)[C@@H]1O; assay: as §1
[21] = substrate: Nc1ncnc2c1ncn2[C@@H]1O[C@H](CNc2ccccc2)[C@@H](O)[C@H]1O; assay: as §1
[22] = substrate: Nc1ncnc2c1ncn2[C@@H]1O[C@H](CSCCc2ccccc2)[C@@H](O)[C@H]1O; assay: as §1
[23] = substrate: Nc1ncnc2c1ncn2[C@@H]1O[C@H](CSc2nccs2)[C@@H](O)[C@H]1O; assay: as §1
[24] = substrate: CSC[C@H]1O[C@@H](n2cnc3c(N)ncnc32)C[C@@H]1O; assay: as §1
[25] = substrate: CSC[C@@H]1C[C@@H](O)[C@H](n2cnc3c(N)ncnc32)O1; assay: as §1
[26] = substrate: Nc1ncnc2c1ncn2[C@@H]1O[C@H](CSc2ccccn2)[C@@H](O)[C@H]1O; assay: as §1
[27] = substrate: Cc1ccc(SC[C@H]2O[C@@H](n3cnc4c(N)ncnc43)[C@H](O)[C@@H]2O)cc1; assay: as §1
[28] = substrate: Nc1ncnc2c1ncn2[C@@H]1O[C@H](CSc2ccc(C(F)(F)F)cc2)[C@@H](O)[C@H]1O; assay: as §1
[29] = substrate: CCC(C)CSC[C@H]1O[C@@H](n2cnc3c(N)ncnc32)[C@H](O)[C@@H]1O; assay: as §1
[30] = substrate: CC(C)(C)SC[C@H]1O[C@@H](n2cnc3c(N)ncnc32)[C@H](O)[C@@H]1O; assay: as §1
[31] = substrate: CSC[C@H]1O[C@@H](n2cnc3c(N)ncnc32)C(N=[N+]=[N-])[C@@H]1O; assay: as §1
[32] = substrate: CCSC[C@H]1O[C@@H](n2cnc3c(N)ncnc32)[C@H](O)[C@@H]1O; assay: as §1
[33] = substrate: Nc1ncnc2c1ncn2[C@@H]1O[C@H](CSC2CCCC2)[C@@H](O)[C@H]1O; assay: as §1

K cat [1]: 3.44 s⁻¹ | Ratio [2]: 0.66 µM⁻¹ s⁻¹
Molecule: Nc1ncnc2c1ncn2[C@@H]1O[C@H](CSc2ccccn2)[C@@H](O)[C@H]1O

K cat [1]: 3.8 s⁻¹ | Ratio [2]: 0.42 µM⁻¹ s⁻¹
Molecule: Nc1ncnc2c1ncn2[C@@H]1O[C@H](CSc2ncc[nH]2)[C@@H](O)[C@H]1O

K cat [1]: 0.67 s⁻¹ | Ratio [2]: 0.022 µM⁻¹ s⁻¹
Molecule: CSC[C@H]1O[C@@H](n2cnc3c(N)ncnc32)[C@H](N)[C@@H]1O

K cat [1]: 5.9 s⁻¹ | Ratio [2]: 1.48 µM⁻¹ s⁻¹
Molecule: CCCCSC[C@H]1O[C@@H](n2cnc3c(N)ncnc32)[C@H](O)[C@@H]1O

K cat [1]: 4.8 s⁻¹ | Ratio [2]: 0.8 µM⁻¹ s⁻¹
Molecule: C[C@H]1O[C@@H](n2cnc3c(N)ncnc32)[C@H](O)[C@@H]1O

K cat [1]: 0.8 s⁻¹ | Ratio [2]: 0.11 µM⁻¹ s⁻¹
Molecule: COc1ccc(SC[C@H]2O[C@@H](n3cnc4c(N)ncnc43)[C@H](O)[C@@H]2O)cc1

K cat [1]: 2.49 s⁻¹ | Ratio [2]: 0.73 µM⁻¹ s⁻¹
Molecule: Nc1ncnc2c1ncn2[C@@H]1O[C@H](CSc2nccs2)[C@@H](O)[C@H]1O

K cat [1]: 2.9 s⁻¹ | Ratio [2]: 1.6 µM⁻¹ s⁻¹
Molecule: CCSC[C@H]1O[C@@H](n2cnc3c(N)ncnc32)[C@H](O)[C@@H]1O

K cat [1]: 0.004 s⁻¹ | Ratio [2]: 0.001 µM⁻¹ s⁻¹
Molecule: CSC[C@@H]1C[C@@H](O)[C@H](n2cnc3c(N)ncnc32)O1

K cat [1]: 2.3 s⁻¹ | Ratio [2]: 0.74 µM⁻¹ s⁻¹
Molecule: CC(C)CSC[C@H]1O[C@@H](n2cnc3c(N)ncnc32)[C@H](O)[C@@H]1O

K cat [1]: 5.5 s⁻¹ | Ratio [2]: 1.96 µM⁻¹ s⁻¹
Molecule: CC(C)CCSC[C@H]1O[C@@H](n2cnc3c(N)ncnc32)[C@H](O)[C@@H]1O

K cat [1]: 4.2 s⁻¹ | Ratio [2]: 0.84 µM⁻¹ s⁻¹
Molecule: CCC(C)CSC[C@H]1O[C@@H](n2cnc3c(N)ncnc32)[C@H](O)[C@@H]1O (stereo partly drawn)

K cat [1]: 0.18 s⁻¹ | Ratio [2]: 0.03 µM⁻¹ s⁻¹
Molecule: Cc1ccccc1SC[C@H]1O[C@@H](n2cnc3c(N)ncnc32)[C@H](O)[C@@H]1O

K cat [1]: 2.4 s⁻¹ | Ratio [2]: 1.2 µM⁻¹ s⁻¹
Molecule: Cc1cccc(SC[C@H]2O[C@@H](n3cnc4c(N)ncnc43)[C@H](O)[C@@H]2O)c1

K cat [1]: 4.6 s⁻¹ | Ratio [2]: 3.2 µM⁻¹ s⁻¹
Molecule: CSC[C@H]1O[C@@H](n2cnc3c(N)ncnc32)[C@H](O)[C@@H]1O (stereo in doubt; 1)

K cat [1]: 1.5 s⁻¹ | Ratio [2]: 0.5 µM⁻¹ s⁻¹
Molecule: Nc1ncnc2c1ncn2[C@@H]1O[C@H](CSc2ccccc2)[C@@H](O)[C@H]1O

K cat [1]: 2.02 s⁻¹ | Ratio [2]: 0.24 µM⁻¹ s⁻¹
Molecule: Nc1ncnc2c1ncn2[C@@H]1O[C@H](CNc2ccccc2)[C@@H](O)[C@H]1O

K cat [1]: 0.23 s⁻¹ | Ratio [2]: 0.26 µM⁻¹ s⁻¹
Molecule: Nc1ncnc2c1ncn2[C@@H]1O[C@H](CSc2ccncc2)[C@@H](O)[C@H]1O

K cat [1]: 0.04 s⁻¹ | Ratio [2]: 1.1e-05 µM⁻¹ s⁻¹
Molecule: CSC[C@H]1O[C@@H](n2cnc3c(N)ncnc32)C(N=[N+]=[N-])[C@@H]1O (stereo partly drawn)

K cat [1]: 0.0004 s⁻¹
Molecule: CSC[C@H]1O[C@@H](n2cnc3c(N)ncnc32)C(F)[C@@H]1O (stereo partly drawn)

K cat [1]: 2.5 s⁻¹ | Ratio [2]: 0.53 µM⁻¹ s⁻¹
Molecule: Nc1ncnc2c1ncn2[C@@H]1O[C@H](CSCc2ccccc2)[C@@H](O)[C@H]1O

K cat [1]: 4.6 s⁻¹ | Ratio [2]: 3.5 µM⁻¹ s⁻¹
Molecule: Nc1ncnc2c1ncn2[C@@H]1O[C@H](CCc2ccccc2)[C@@H](O)[C@H]1O

K cat [1]: 0.85 s⁻¹ | Ratio [2]: 0.05 µM⁻¹ s⁻¹
Molecule: CC(C)(C)SC[C@H]1O[C@@H](n2cnc3c(N)ncnc32)[C@H](O)[C@@H]1O

K cat [1]: 0.3 s⁻¹ | Ratio [2]: 0.17 µM⁻¹ s⁻¹
Molecule: Nc1ncnc2c1ncn2[C@@H]1O[C@H](CSc2ccc(C(F)(F)F)cc2)[C@@H](O)[C@H]1O

K cat [1]: 0.28 s⁻¹ | Ratio [2]: 0.09 µM⁻¹ s⁻¹
Molecule: CSC[C@H]1O[C@@H](n2cnc3c(N)ncnc32)C[C@@H]1O

K cat [1]: 1.4 s⁻¹ | Ratio [2]: 0.93 µM⁻¹ s⁻¹
Molecule: Cc1ccc(SC[C@H]2O[C@@H](n3cnc4c(N)ncnc43)[C@H](O)[C@@H]2O)cc1

K cat [1]: 1.01 s⁻¹ | Ratio [2]: 0.09 µM⁻¹ s⁻¹
Molecule: Nc1ncnc2c1ncn2[C@@H]1O[C@H](CSCCc2ccccn2)[C@@H](O)[C@H]1O

K cat [1]: 0.0065 s⁻¹ | Ratio [2]: 0.0001 µM⁻¹ s⁻¹
Molecule: CSC[C@H]1O[C@@H](n2cnc3c(N)ncnc32)[C@H](O)[C@@H]1O (stereo in doubt; 7)

K cat [1]: 2.14 s⁻¹ | Ratio [2]: 0.43 µM⁻¹ s⁻¹
Molecule: Nc1ncnc2c1ncn2[C@@H]1O[C@H](CSCCc2ccccc2)[C@@H](O)[C@H]1O

K cat [1]: 1.5 s⁻¹ | Ratio [2]: 0.47 µM⁻¹ s⁻¹
Molecule: Nc1ncnc2c1ncn2[C@@H]1O[C@H](CSC2CCCC2)[C@@H](O)[C@H]1O

K cat [1]: 1.46 s⁻¹ | Ratio [2]: 0.058 µM⁻¹ s⁻¹
Molecule: Nc1ncnc2c1ncn2[C@@H]1O[C@H](CSCCO)[C@@H](O)[C@H]1O

K cat [1]: 1.57 s⁻¹ | Ratio [2]: 0.45 µM⁻¹ s⁻¹
Molecule: Nc1ncnc2c1ncn2[C@@H]1O[C@H](CSC2CCCCC2)[C@@H](O)[C@H]1O

K cat [1]: 1.11 s⁻¹ | Ratio [2]: 0.09 µM⁻¹ s⁻¹
Molecule: Nc1ncnc2c1ncn2[C@@H]1O[C@H](COc2ccccc2)[C@@H](O)[C@H]1O

K cat [1]: 3.16 s⁻¹ | Ratio [2]: 0.46 µM⁻¹ s⁻¹
Molecule: Nc1ncnc2c1ncn2[C@@H]1O[C@H](CSc2ccc3ccccc3n2)[C@@H](O)[C@H]1O

B1: S-methyl-5'-thioadenosine phosphorylase (Homo sapiens), Q13126 (protein)
chain: MASGTTTTAVKIGIIGGTGLDDPEILEGRTEKYVDTPFGKPSDALILGKIKNVDCVLLARHGRQHTIMPSKVNYQANIWALKEEGCTHVIVTTACGSLREEIQPGDIVIIDQFIDRTTMRPQSFYDGSHSCARGVCHIPMAEPFCPKTREVLIETAKKLGLRCHSKGTMVTIEGPRFSSRAESFMFRTWGADVINMTTVPEVVLAKEAGICYASIAMATDYDCWKEHEEAVSVDRVLKTLKENANKAKSLLLTTIPQIGSTEWSETLHNLKNMAQFSVLLPRH
Km [3]: 3.5 µM | Km [4]: 9 µM | Km [5]: 3 µM | Km [6]: 12 µM | Km [7]: 30 µM | Km [8]: 0.88 µM | Km [9]: 2.8 µM | Km [10]: 1.3 µM | Km [11]: 3.1 µM | Km [12]: 2 µM | Km [13]: 4.6 µM | Km [14]: 25 µM | Km [15]: 7 µM | Km [16]: 4 µM | Km [17]: 6.9 µM | Km [18]: 6 µM | Km [19]: 10.2 µM | Km [20]: 5.6 µM | Km [21]: 8.5 µM | Km [22]: 5 µM | Km [23]: 3.4 µM | Km [24]: 3.1 µM | Km [25]: 3.9 µM | Km [26]: 5.2 µM | Km [27]: 1.5 µM | Km [28]: 1.7 µM | Km [29]: 5 µM | Km [30]: 17 µM | Km [31]: 3600 µM | Km [32]: 1.8 µM | Km [33]: 3.2 µM

Source: ChEMBL document CHEMBL1139590, “Design, synthesis, and biological evaluation of novel human 5'-deoxy-5'-methylthioadenosine phosphorylase (MTAP) substrates” (Bioorg Med Chem Lett, 2005)
